Data taken from a melting point compilation (Tetko et al.; mined from patent text by program, amines drawn as free bases though some values may be those of a salt).

Compound | melting point
COc1cc(-n2nc(C(F)(F)F)cc2-c2ccc(-c3ccco3)cc2)ccc1S(C)(=O)=O | 139 °C
CSc1ccc(C(=O)Nc2ccccc2)cc1Nc1cccc(C(F)(F)F)c1 | 169 to 170 °C
CN1Cc2c(C#Cc3ccccc3Cl)ncn2-c2ccc(F)cc2C1=O | 259 to 261 °C
O=c1c2ccc(Cl)cc2[nH]c2c(O)nn(Cc3ccccc3F)c(=O)c12 | 215 °C
O=c1c(-c2ccccc2)c(CSc2ncnc3[nH]cnc23)oc2ccc(Br)cc12 | 214 to 218 °C
CCCN(CCC)Cc1nnc(-c2ncn3c2CN(C)C(=O)c2c-3ccc(F)c2Cl)o1 | 128 to 130 °C
CNC(=O)C1=CC(C)(C)Oc2ccc([N+](=O)[O-])cc21 | 166 to 168 °C
C=Cn1nnn(-c2cc(OC)c(Cl)cc2Cl)c1=O | 142 to 143 °C
c1ccc(C2COc3cccc4c5c(OCCN6CCNCC6)cccc5n2c34)cc1 (stereo not given) | 72 °C
Cc1cc(-n2ccc(OCc3ccccc3)cc2=O)sc1C(=O)NCc1ccccc1 | 153 to 154 °C
CCc1ccc(S(=O)(=O)n2c(CCC(=O)O)cc3cc(Cl)ccc32)cc1 | 130 to 133 °C
O=C(Cc1ccncc1)NCc1cccc2c1C(=O)N(C1CCC(=O)NC1=O)C2=O (stereo not given) | 294 to 296 °C
COC(=O)c1ncc(Cl)nc1Cl | 60 to 63 °C
Cc1cc(C)c(C)c(COc2ccccc2-c2ccoc2C(=O)NNC(=O)c2ccc(O)c(C#N)c2)c1C | 215 to 217 °C
CC(O)C1CCC2C3CC=C4CC(O)CC(O)C4(C)C3CCC12C (stereo not given) | 235 to 237 °C
CCCC1CC(=O)c2c(NC(=O)C(=O)OCC)ccc(C)c21 (stereo not given) | 84 to 86 °C
CCOC(=O)C=Cc1ccc(O)c(C(F)(F)F)c1C(F)(F)F | 138 to 140 °C
CC(=O)N1c2c(ccn3cc(C)nc23)C(=O)C(OC(=O)C(C)(C)C)C1c1ccccc1 (stereo not given) | 168 to 169 °C
Cc1ccc(C2C(=O)Oc3c2cc(C(C)(C)C)cc3C(C)(C)C)cc1C (stereo not given) | 130 to 132 °C
CNc1nc(-c2ccc(OC)cc2)c(-c2cccnc2)s1 | 158 to 159 °C
CCn1c2ccc(C)cc2c2ccc3ccccc3c21 | 111 to 114 °C
CC(C)(C)OC(=O)C[C@H](NC(=O)CNC(=O)c1csc(NC(=O)NCc2ccccc2)n1)C(=O)NCc1cccnc1 | 185 °C
COC(=O)c1ccc(C(=O)c2ccc(C)cc2)cc1 | 125 to 126 °C
Cn1cncc1C(N)(c1ccc(Cl)cc1)c1ccc2c(c1)c(-c1cccc(Cl)c1)nc1nnnn12 (stereo not given) | 159 °C

Compound | melting point
Nc1ccc(-n2nnn(CCCC3CCCCC3)c2=O)cc1 | 64 to 69 °C
CCN1CCCC1CNC(=O)c1cc(NS(=O)(=O)NC(C)(C)C)c(C)cc1OC (stereo not given) | 167 to 168 °C
OC(CNC1CC1)c1cccc(Cl)c1 (stereo not given) | 71.3 to 73.2 °C
NC(=O)C1(c2ccc(C#Cc3ccccc3)cc2)CC1 | 174 to 176 °C
CC(=O)Nc1ccc(C(=O)NC(=O)N2CCC(Cc3ccc(F)cc3)CC2)cc1 | 156 to 171 °C
CC1(C)Sc2nccn2C1=NOC(=O)CNSCNC(=O)ON=C1n2ccnc2SC1(C)C | 177 to 180 °C
CCCCN1CC(=O)N2[C@@H](c3ccc(NS(C)(=O)=O)cc3)c3[nH]c4ccccc4c3C[C@@H]2C1=O (relative stereo) | 188 °C
CC(C)N1OCC(=Cc2cc(C(C)(C)C)c(O)c(C(C)(C)C)c2)C1=O | 178 to 180 °C
COP(=O)(Cc1ccc(-c2ccccc2)cc1)OC | 70 to 71 °C
CC(=O)n1nc(CBr)c(Oc2cc(Cl)cc(Cl)c2)c1C | 111 to 113 °C
Cc1cccc(-c2ccc(C(=O)N3Cc4cccn4Cc4ccccc43)cc2)c1 | 128 to 130 °C
CC(C)(C)c1cc(-c2nnc(C(N)=S)s2)cc(C(C)(C)C)c1O | 215 to 216 °C
COc1ccc(N2CCOCC2)cc1NC(=O)c1ncc[nH]1 | 227 to 230 °C
COc1ccc(S(=O)(=O)N2CCc3cccc(-c4ccncc4)c32)cc1 | 196 to 197 °C
Cc1cc(C(F)(C(F)(F)F)C(F)(F)F)ccc1NC(=O)c1ccnc(Cl)c1C(=O)NC(C)C | 275 to 277 °C
O=C(O)Cc1c(C(=O)O)c2cc(Oc3cc(Cl)cc(Cl)c3)ccc2n1-c1ccc(OC(F)(F)F)cc1 | 219 to 223 °C
CO[C@@H](C(=O)N[C@H]1CC[C@@H](OC(=O)CCc2ccccc2)CNC1=O)[C@H](O)[C@@H](O)[C@H](O)/C=C/C(C)(C)C | 75 to 77 °C
Nc1ccc(C2=CCOCC2)c(F)c1 | 86 to 88 °C
Cc1ccccc1N(Cc1cccnc1)S(C)(=O)=O | 97 to 98 °C
O=c1[nH]c2sc3ccc(Cl)cc3c2[nH]c1=O | > 340 °C
CCOC(=O)c1c(OCC)ccn1C(=O)n1cccc1C(=O)O | 58 to 60 °C
CC(=O)Nc1ccc(/C=C/C(=O)NCC(=O)N(C)c2ccc(C)c(CO)c2C)cn1 | 215 to 216 °C
CCSCc1ccc2[nH]c(NC(=O)OC)nc2c1 | 229 to 231 °C
CC(NC(=O)OCc1ccccc1)C(=O)NC1C(C(=O)O)OC(n2cnc3c(NC(=O)c4ccccc4)ncnc32)C1O (stereo not given) | 154 to 156 °C

Compound | melting point
O=C(CN1C(=O)CC1SCc1ccccc1)NCCCCCCc1ccccc1 (stereo not given) | 65 to 70 °C
C/C=C/CNC(=O)N1CC(Oc2ccc(C(F)(F)F)cc2)C1 | 157 to 158 °C
CN(C(=O)N1CCOCC1)c1ccc(OCC(=O)N[C@@H](CC(N)=O)C(=O)N[C@@H](Cc2ccccc2)[C@H](O)C(=O)N2CCC[C@H]2C(=O)NC(C)(C)C)cc1 | 112 to 114 °C
CCOC(=O)c1ccc(Cl)nc1NCc1ccc(OC)c(Cl)c1 | 108 to 112 °C
CC(=O)C(Cc1c(CCN(C)C)[nH]c2ccccc12)(c1ccccc1)c1ccccc1 | 135 to 137 °C
O=C1NC(C(=O)NCCO[N+](=O)[O-])C(Cc2ccccc2)S1 (stereo not given) | 123 to 124 °C
CCCC1=C(C(=O)OCC)C(c2cc(F)ccc2F)c2c[nH]nc2N1 (stereo not given) | 168 to 169 °C
COc1cc(C(=O)N2CCC(CCN3CCC(C(=O)c4nc5ccccc5n4Cc4ccccn4)CC3)(c3ccc(Cl)c(Cl)c3)C2)cc(OC)c1OC (stereo not given) | 110 to 115 °C
CCCn1nc2c(N)nc3ncccc3c2c1CC1CCOCC1 | 252 to 255 °C
CNC(=S)[C@]1(c2cccnc2)CCCC[C@H]1NOCc1c(F)c(F)c(F)c(F)c1F | 57 to 60 °C
CCOC(=O)c1cn(Cc2ccccc2)nc1OCc1cccc(OCc2nc(-c3ccco3)oc2C)c1 | 92 to 93 °C
Cc1ccc(S(=O)(=O)NC(=O)OCCc2ccc(-n3c(CCCc4ccncc4)nc4cc(C(F)(F)F)c(Cl)cc43)cc2)cc1 | 80 to 87 °C
CC(=O)Oc1ccccc1C(=O)SC(C)C(=O)NCC(=O)O (stereo not given) | 100 to 102 °C
O=Cc1cc2ccc3ccsc3c2c2ccccc12 | 173 to 177 °C
CCNC(=O)C1CC(n2cnc3c(NC(CC)Cc4ccc(Cl)s4)ccnc32)C(O)C1O (stereo not given) | 77 to 85 °C
COc1ccc2c(-c3ccc(OCCN4CCCC4)cc3)c(Cc3ccc(Cl)cc3)oc2c1 | 75 °C
COc1ccc(Oc2c(C)noc2NS(=O)(=O)c2ccccc2)cc1 | 128 to 130 °C
COC(=O)c1ccccc1OCNC(=O)CCCCCNC(=O)OC(C)(C)C | 120 to 121 °C
CC(OCc1ccc(-c2ccccc2)cc1)(C(=O)O)C(F)(F)F (stereo not given) | 80 to 81 °C
COc1ccc(CC(=O)O)cc1OC1CCCC1 | 79 to 80 °C
CCCc1c(O)ccc2ccc(C(=O)OCC)cc12 | 114 to 115 °C
CC(=O)OC1CSC(Oc2cncc(I)c2)C(OC(C)=O)C1OC(C)=O (stereo not given) | 148 to 150 °C
COc1ccc(C(=O)Nc2ccccc2)cc1NC(=S)Nc1cccc(Cl)c1 | 165 to 168 °C
CCCCOC(=O)c1ccc(NCc2cc(Br)ccc2OCc2ccccc2)nn1 | 133 to 135 °C

Compound | melting point
COc1ccc(-c2cccn2-c2ccc(S(N)(=O)=O)cc2)cc1 | 183 to 184 °C
CC(C)CCc1c(-c2ccc(S(N)(=O)=O)c(F)c2)cnn(CC(F)(F)F)c1=O | 153 to 156 °C
CC(C)(O)c1ccc(CNC(=O)c2cccnc2Oc2cccc3c2CCC3=O)cc1 | 145 to 147 °C
CCOc1ccc(Cn2cnc3c(-c4ccco4)ncnc32)cc1 | 165 to 166 °C
COc1cc(Br)c2nc(-c3ccc(OC)c(F)c3)cc(Br)c2c1 | 178 to 179 °C
O=c1cc2ccccc2c[nH]1 | 201 °C
O=C(O)c1ccc2cc(OCCCCCCc3cccc(OCc4ccccc4)c3OCc3ccccc3)ccc2c1 | 66 to 68 °C
O=C1C(=O)c2ccccc2C2=C1SCC(CN1CCC3(CC1)OCCO3)O2 (stereo not given) | 202 to 204 °C
O=C1c2ccccc2C(=O)N1Cc1ccccc1-c1noc2ccccc12 | 142 °C
CCN(CC)CCn1cc(C(=O)NCc2ccc(Cl)cc2)c(=O)c2cc(C#CCO)ccc21 | 145 to 148 °C
CCOC(=O)C1=C(/C=C/N(C)C)C(CC)(C(=O)N(CC)CC)OC1=O (stereo not given) | 105 °C
COC(=O)c1cc(Cl)c(OC)c(Cl)c1N | 72 to 73 °C
CNc1cc(S(=O)(=O)c2cccc(C(F)(F)F)c2)cc(Br)n1 | 115 to 117 °C
CCOC(=O)COc1ccc(NC(=O)OC(C)(C)C)cc1C(F)(F)F | 104 to 105 °C
O=C(C=Cc1ccccc1)Nc1ccccc1NC(=O)C=Cc1ccccc1 | 212 °C
CC(C)C(=O)NCC(=O)c1ccco1 | 78 to 80 °C
O=C(O)COc1ccc2c(c1)CCc1sc(SCCC(c3ccccc3)c3ccccc3)nc1-2 | 138 to 140 °C
CC(=O)N1CC(C)=NN(c2cc(Cl)c(Cc3ccc(Cl)cc3)c(Cl)c2)C1=O | 101 to 102 °C
CC(=O)Nc1nc(CCc2ccc(CC(=O)O)s2)cs1 | 172 to 174 °C
CC(Cc1c[nH]c2ccccc12)(NS(=O)(=O)CC12CCC(CC1=O)C2(C)C)C(=O)NC(CO)Cc1ccccc1 (stereo not given) | 81 to 85 °C
COc1ccc(-c2csc(Nc3ccc4ccccc4c3)n2)cc1OC | 221 to 224 °C
Brc1cccc(Oc2ncccc2OCCCc2ccncc2)c1 | 111 to 113 °C
Cc1cc2c(cc1Oc1ccc(C(=O)NNc3ccc4c(C)nn(C)c4n3)o1)C(C)(C)CC(C)C2(C)C (stereo not given) | 169 to 170 °C
